Measured values as given in patent US6355799B1, “Substituted benzene compounds, process for their preparation, and herbicidal and defoliant compositions containing them” (ISK Americas Incorporated, priority 1997, dated 2002).

How the values were obtained:
Assay type in all cases: in vivo
[1] = test system: upland rice (Oryza sp., var. Tebonnet, RICE); assay: Post-emerge test, crop safety; conditions: post-emerge, 14 days after application, rating scale 0-100
How it was run: (§1)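 Each test used a mechanized track sprayer delivering 187 l/ha of acetone solution at 15–1000 g ai/ha. Post-emerge foliage at 2–3 leaves was treated with added 0.25% v/v non-ionic surfactant and bottom-watered only. Injury was assessed on day 14, where 100 means total kill.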

[2] = test system: field corn (Zea mays L., var. Dekalb 535, CORN); assay: Post-emerge test, crop safety; conditions: post-emerge, 14 days after application, rating scale 0-100
How it was run: as §1

[3] = test system: redroot pigweed (Amaranthus retroflexus, AMARE); assay: Pre-emerge test, greenhouse herbicide activity screening; conditions: pre-emerge, 14 days after application, scale 0-100
How it was run: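 Sandy loam pots; pre-emerge: sown 1 d pre-spray, surface-watered after, then bottom-watered. Post-emerge: sown 8–21 d before, 2–3 leaf stage, + 0.25% v/v NIS, bottom-watered. Acetone, 187 l/ha track spray, 15–1000 g ai/ha. 0–100 injury score, day 14.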

[4] = test system: upland rice (Oryza sp., var. Tebonnet, RICE); assay: Pre-emerge test, crop safety; conditions: pre-emerge, 14 days after application, scale 0-100
How it was run: (§2)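 Visual ratings on a 0-100 scale (0 no damage, 100 all plants dead) were taken at 14 days after treatment. Rates of 15-1000 g ai/ha in acetone, 187 l/ha, were sprayed onto soil one day after planting (pre-emerge) or onto 2-3 leaf plants with 0.25% v/v surfactant (post-emerge).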

[5] = test system: field corn (Zea mays L., var. Dekalb 535, CORN); assay: Pre-emerge test, crop safety; conditions: pre-emerge, 14 days after application, scale 0-100
How it was run: as §2

[6] = test system: green foxtail (Setaria viridis, SETVI); assay: Post-emerge test, greenhouse herbicide activity screening; conditions: post-emerge, 14 days after application, rating scale 0-100
How it was run: (§3)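 Compounds in acetone were track-sprayed at 15–1000 g ai/ha: pre-emergence onto soil sown the previous day, then top-watered to incorporate and later bottom-watered; post-emergence onto 2–3 leaf plants with 0.25% v/v surfactant, bottom-watered only. Ratings on a 0–100 phytotoxicity scale were taken at day 14.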

[7] = test system: velvetleaf (Abutilon theophrasti, ABUTH); assay: as above; conditions: post-emerge, 14 days after application, rating scale 0-100
How it was run: as §3

[8] = test system: redroot pigweed (Amaranthus retroflexus, AMARE); assay: as above; conditions: post-emerge, 14 days after application, rating scale 0-100
How it was run: as §3

[9] = test system: ivyleaf morningglory (Ipomoea hederacea, IPOHE); assay: as above; conditions: post-emerge, 14 days after application, rating scale 0-100
How it was run: as §3

[10] = test system: johnsongrass (Sorghum halepense, SORHA); assay: as above; conditions: post-emerge, 14 days after application, rating scale 0-100
How it was run: as §3

[11] = test system: barnyardgrass (Echinochloa crus-galli, ECHCG); assay: as above; conditions: post-emerge, 14 days after application, rating scale 0-100
How it was run: as §3

[12] = test system: lambsquarters (Chenopodium album, CHEAL); assay: as above; conditions: post-emerge, 14 days after application, rating scale 0-100
How it was run: as §3

[13] = test system: large crabgrass (Digitaria sanguinalis, DIGSA); assay: as above; conditions: post-emerge, 14 days after application, rating scale 0-100
How it was run: as §3

[14] = test system: sicklepod (Cassia obtusifolia, CASOB); assay: as above; conditions: post-emerge, 14 days after application, rating scale 0-100
How it was run: as §3

[15] = test system: green foxtail (Setaria viridis, SETVI); assay: Pre-emerge test, greenhouse herbicide activity screening; conditions: pre-emerge, 14 days after application, scale 0-100
How it was run: (§4)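 Plants grown in 10 cm pots of sandy loam mix received acetone-dissolved compounds through a moving flat-fan nozzle. Doses ranged from 15 to 1000 g ai/ha. Pre-emerge pots were seeded one day earlier, post-emerge pots 8–21 days earlier. Fourteen days on, each pot was graded 0–100 for damage.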

[16] = test system: velvetleaf (Abutilon theophrasti, ABUTH); assay: as above; conditions: pre-emerge, 14 days after application, scale 0-100
How it was run: as §4

[17] = test system: ivyleaf morningglory (Ipomoea hederacea, IPOHE); assay: as above; conditions: pre-emerge, 14 days after application, scale 0-100
How it was run: as §4

[18] = test system: johnsongrass (Sorghum halepense, SORHA); assay: as above; conditions: pre-emerge, 14 days after application, scale 0-100
How it was run: as §4

[19] = test system: barnyardgrass (Echinochloa crus-galli, ECHCG); assay: as above; conditions: pre-emerge, 14 days after application, scale 0-100
How it was run: as §4

[20] = test system: lambsquarters (Chenopodium album, CHEAL); assay: as above; conditions: pre-emerge, 14 days after application, scale 0-100
How it was run: as §4

[21] = test system: large crabgrass (Digitaria sanguinalis, DIGSA); assay: as above; conditions: pre-emerge, 14 days after application, scale 0-100
How it was run: as §4

[22] = test system: sicklepod (Cassia obtusifolia, CASOB); assay: as above; conditions: pre-emerge, 14 days after application, scale 0-100
How it was run: as §4

COc1cc2ccccc2cc1C(=O)Nc1c(OC)c(Cl)cc(F)c1-n1c(=O)cc(C(F)(F)F)n(C)c1=O [2-152]
RICE phytotoxicity rating (crop damage) ([1]; 63 g ai/ha): 40 | RICE phytotoxicity rating (crop damage) ([1]; 250 g ai/ha): 65 | CORN phytotoxicity rating (crop damage) ([2]; 63 g ai/ha): 15 | CORN phytotoxicity rating (crop damage) ([2]; 250 g ai/ha): 30 | phytotoxicity rating AMARE ([3]; 63 g ai/ha): 100 | phytotoxicity rating AMARE ([3]; 250 g ai/ha): 100 | phytotoxicity rating RICE (crop damage) ([4]; 63 g ai/ha): 0 | phytotoxicity rating RICE (crop damage) ([4]; 250 g ai/ha): 30 | phytotoxicity rating CORN (crop damage) ([5]; 63 g ai/ha): 0 | phytotoxicity rating CORN (crop damage) ([5]; 250 g ai/ha): 0 | SETVI phytotoxicity rating ([6]; 63 g ai/ha): 30 | SETVI phytotoxicity rating ([6]; 250 g ai/ha): 50 | ABUTH phytotoxicity rating ([7]; 63 g ai/ha): 100 | ABUTH phytotoxicity rating ([7]; 250 g ai/ha): 100 | AMARE phytotoxicity rating ([8]; 63 g ai/ha): 100 | AMARE phytotoxicity rating ([8]; 250 g ai/ha): 100 | IPOHE phytotoxicity rating ([9]; 63 g ai/ha): 100 | IPOHE phytotoxicity rating ([9]; 250 g ai/ha): 100 | SORHA phytotoxicity rating ([10]; 63 g ai/ha): 20 | SORHA phytotoxicity rating ([10]; 250 g ai/ha): 40 | ECHCG phytotoxicity rating ([11]; 63 g ai/ha): 30 | ECHCG phytotoxicity rating ([11]; 250 g ai/ha): 50 | CHEAL phytotoxicity rating ([12]; 63 g ai/ha): 98 | CHEAL phytotoxicity rating ([12]; 250 g ai/ha): 100 | DIGSA phytotoxicity rating ([13]; 63 g ai/ha): 20 | DIGSA phytotoxicity rating ([13]; 250 g ai/ha): 30 | CASOB phytotoxicity rating ([14]; 63 g ai/ha): 100 | CASOB phytotoxicity rating ([14]; 250 g ai/ha): 100 | phytotoxicity rating SETVI ([15]; 63 g ai/ha): 30 | phytotoxicity rating SETVI ([15]; 250 g ai/ha): 70 | phytotoxicity rating ABUTH ([16]; 63 g ai/ha): 60 | phytotoxicity rating ABUTH ([16]; 250 g ai/ha): 90 | phytotoxicity rating IPOHE ([17]; 63 g ai/ha): 0 | phytotoxicity rating IPOHE ([17]; 250 g ai/ha): 0 | phytotoxicity rating SORHA ([18]; 63 g ai/ha): 0 | phytotoxicity rating SORHA ([18]; 250 g ai/ha): 30 | phytotoxicity rating ECHCG ([19]; 63 g ai/ha): 10 | phytotoxicity rating ECHCG ([19]; 250 g ai/ha): 70 | phytotoxicity rating CHEAL ([20]; 63 g ai/ha): 95 | phytotoxicity rating CHEAL ([20]; 250 g ai/ha): 100 | phytotoxicity rating DIGSA ([21]; 63 g ai/ha): 50 | phytotoxicity rating DIGSA ([21]; 250 g ai/ha): 80 | phytotoxicity rating CASOB ([22]; 63 g ai/ha): 0 | phytotoxicity rating CASOB ([22]; 250 g ai/ha): 50
